Several values for one entry are separate records, joined by “and”; a condition that tells them apart may be missing. Equal entries are not always repeated.
Legend:
[1] = tested on: cell lines HEKsst2 and PC3; assay: A80/A60 of Lu-177-DOTATATE by colony formation assay, HEKsst2 and PC3; format: cell-based; details: 24 h incubation, value used for both HEKsst2 and PC3
Protocol: (§1) To show the dose-response relationship, the unstimulated HEKsst2 and PC3 cells were irradiated with absorbed doses of 0.1–7.5 Gy in an X-ray tube.
(§2) The stimulation process followed the protocol described above.
(§3) To determine the radiosensitivity and radiotoxicity, the clonogene cell survival was analyzed. Colony formation assays were performed as described earlier. The following steps have been done for each of the treatment procedures. Briefly, after detaching the treated cells, an aliquot of the cell suspension per dose point was distributed in T25 culture flasks for the colony formation test and is placed in an incubator for 7 (HEKsst2) or 10 days (PC3). To stop colony formation, the cells were fixed with ethanol 80% (v/v) followed by staining with crystal violet solution. The colony counting was carried out under a microscope (25× magnification). Colonies of more than 50 cells were scored as survivors. The plating efficiency (PE) and the survival rate (survival fraction SF) were calculated for irradiated and unirradiated cells based on the number of seeded cells.

SSTR2 in HEKsst2 cells [2] = assay: Intracellular Lu-177-DOTATATE uptake, HEKsst2; format: cell-based, murine; details: for Lu-177-DOTATATE uptake (intracellular activity, % of total activity normalized to 2.0 × 10^5 cells): 37 °C; for Lu-177-DOTATATE uptake (intracellular activity, % of total activity normalized to 2.0 × 10^5 cells) / increase of Lu-177-DOTATATE uptake by a factor: 50 kBq; for increase of Lu-177-DOTATATE uptake by a factor: stimulated (5.0 µM 5-aza-dC, 1.85 mM VPA) vs unstimulated
Protocol: (§4) HEK293 cells were obtained from the German Resource Center for Biological Material (DSMZ, Braunschweig, Germany) and grown in Dulbecco’s modified Eagle´s medium supplemented with 10% fetal calf serum (FCS) in a humidified atmosphere containing 5% CO2. Cells were transfected with plasmid, encoding murine HA-tagged SSTR2 receptors using lipofectamine according to the manufacturing instructions (Thermofisher, Darmstadt, Germany). Stable transfectants were selected in the presence of 500 µg/mL G-418 and characterized using radioligand binding assays, Western blot analyses, surface ELISA assays and immunocytochemistry as described previously. Non-transfected HEK293 cells were maintained under equal conditions as HEKsst2 except for the addition of G-418. In the following, HEK293 cells and SSTR2 transfected HEK293 cells are termed as HEK and HEKsst2, respectively. The human prostate carcinoma cell line PC3 (ATCC®, Manassas, VA, USA) was cultured in a RPMI medium with 10% (v/v) FCS and 1% (v/v) non-essential amino acids (NEA). […] The culture medium of each cell line was renewed every 2–3 days. Via a PCR test, each cell line is proven to be free of mycoplasmas.
After incubation times, the supernatant of the well was removed and the cells were washed twice with PBS (phosphate buffered saline) at 4 °C. Supernatant and washed solution make up the non-bound fraction of the radioligand. The cell layers were lysed with 1 mL 0.1 M NaOH for 10 min at 37 °C. These fractions correspond to the intracellular fraction of radioligand. The activity of all fractions was measured using a Gamma-Counter (Cobra II, Autogamma, Packard®, Canberra Company, Ruesselsheim, Germany). The intracellular activity was expressed as a percentage of the total activity normalized to the cell count of 2.0 × 10^5.
To examine the statistical significance, an unpaired student’s t-test was used. A difference between two independent samples is significant if the probability of error p ≤ 0.05. For the statistical evaluation, MS Office Excel was used.

PC3 cells [3] = assay: Intracellular Lu-177-DOTATATE uptake, PC3; format: cell-based, human; details: 50 kBq
Protocol: HEK293 cells were obtained from the German Resource Center for Biological Material (DSMZ, Braunschweig, Germany) and grown in Dulbecco’s modified Eagle´s medium supplemented with 10% fetal calf serum (FCS) in a humidified atmosphere containing 5% CO2. Cells were transfected with plasmid, encoding murine HA-tagged SSTR2 receptors using lipofectamine according to the manufacturing instructions (Thermofisher, Darmstadt, Germany). Stable transfectants were selected in the presence of 500 µg/mL G-418 and characterized using radioligand binding assays, Western blot analyses, surface ELISA assays and immunocytochemistry as described previously. Non-transfected HEK293 cells were maintained under equal conditions as HEKsst2 except for the addition of G-418. In the following, HEK293 cells and SSTR2 transfected HEK293 cells are termed as HEK and HEKsst2, respectively. […]
After incubation times, the supernatant of the well was removed and the cells were washed twice with PBS (phosphate buffered saline) at 4 °C. […] The activity of all fractions was measured using a Gamma-Counter (Cobra II, Autogamma, Packard®, Canberra Company, Ruesselsheim, Germany). The intracellular activity was expressed as a percentage of the total activity normalized to the cell count of 2.0 × 10^5. […]

SSTR2 in HEKsst2 cells [4] = assay: Saturation binding of Lu-177-DOTATATE, HEKsst2; design: species or system murine; details: for Kd: excess DOTATATE for non-specific binding; for number of binding sites per cell: from Bmax
Protocol: as §4
Excess DOTATATE (3.5 × 10^−3–7.03 nmol) was used to block receptors and determine the non-specific binding. The uptake data (triplicates per each condition) were fitted to a one-site binding model in GraphPad Prism 9.0 to determine the number of binding sites (Bmax) and the dissociation constant (Kd).
To determine the Bmax values and the Kd, the GraphPad Prism 9.0 software was used. Confidence Intervals (CI) express a 95% likelihood of the nonlinear fit.

HEKsst2 cells [5] = assay: Radiotoxic dose-response of Lu-177-DOTATATE (CFA), unstimulated HEKsst2; format: cell-based
Protocol: as §1, §3

PC3 cells [6] = assay: Radiotoxic dose-response of Lu-177-DOTATATE (CFA), unstimulated PC3; format: cell-based, human; details: up to 0.5 MBq/mL, 24 h, compared with HEKsst2
Protocol: as §1, §3

HEKsst2 cells [7] = assay: Radiotoxicity of Lu-177-DOTATATE on unstimulated and stimulated HEKsst2 (CFA); format: cell-based; details: for Survival Fraction: 24 h
Protocol: as §2, §3

PC3 cells [8] = assay: Radiotoxicity of Lu-177-DOTATATE on unstimulated and stimulated PC3 (CFA); format: cell-based, human; details: for cell survival of stimulated vs unstimulated PC3: 5-aza-dC and VPA
Protocol: as §2, §3

[9] = tested on: Forskolin-stimulated cAMP production; design: method as in PMID 29599907; details: BON-1 and QGP-1 stimulated with 5-aza-dC and VPA; cited from earlier work

Substance: (DOTA)-[Tyr3, Thr8]-octreotide [Lu-177-DOTATATE, SSTR2-targeted radioligand, Lu-177 labelled (DOTA)-[Tyr3, Thr8]-octreotide]
- A60 ([1]; activity equivalent to X-ray D60 (1.2 Gy)): 136 kBq/mL
- A80 ([1]; activity equivalent to X-ray D80 (0.6 Gy)): 57.5 kBq/mL
- Lu-177-DOTATATE uptake (intracellular activity, % of total activity normalized to 2.0 × 10^5 cells) (SSTR2 in HEKsst2 cells [2]; 1 h, cells stimulated 5 days with 5.0 µM 5-aza-dC and 1.85 mM VPA, p = 0.0142 vs unstimulated, gamma counter): 50.2%
- Lu-177-DOTATATE uptake (intracellular activity, % of total activity normalized to 2.0 × 10^5 cells) (SSTR2 in HEKsst2 cells [2]; 1 h, unstimulated cells): 1.8%
- increase in Lu-177-DOTATATE uptake vs unstimulated (SSTR2 in HEKsst2 cells [2]; 1 h, 0.1 µM 5-aza-dC (and 1.85 mM VPA), p = 0.060): also shows stimulatory effects, no significant difference was found
- increase in Lu-177-DOTATATE uptake vs unstimulated (SSTR2 in HEKsst2 cells [2]; 1 h, 5.0 µM 5-aza-dC and 1.85 mM VPA, p < 0.05): 2800%
- Lu-177-DOTATATE uptake (intracellular activity, % of total activity normalized to 2.0 × 10^5 cells) (SSTR2 in HEKsst2 cells [2]; 24 h, cells stimulated with 5.0 µM 5-aza-dC and 1.85 mM VPA, p = 0.0090 vs unstimulated): 36.2%
- Lu-177-DOTATATE uptake (intracellular activity, % of total activity normalized to 2.0 × 10^5 cells) (SSTR2 in HEKsst2 cells [2]; 24 h, unstimulated cells): 5.6%
- increase in Lu-177-DOTATATE uptake vs unstimulated (SSTR2 in HEKsst2 cells [2]; 24 h, 3.9 µM 5-aza-dC and 1.85 mM VPA, p < 0.05): ≈ 640%
- increase in Lu-177-DOTATATE uptake vs unstimulated (SSTR2 in HEKsst2 cells [2]; 24 h, 5.0 µM 5-aza-dC and 1.85 mM VPA, p < 0.05): ≈ 640%
- increase of Lu-177-DOTATATE uptake by a factor (SSTR2 in HEKsst2 cells [2]; 1 h, p = 0.0142): 28
- increase of Lu-177-DOTATATE uptake by a factor (SSTR2 in HEKsst2 cells [2]; 24 h, p = 0.0090): 6.5
- Lu-177-DOTATATE uptake values compared to unstimulated cells (PC3 cells [3]; stimulated PC3, 1 h, p = 0.4935): marginal increase
- Lu-177-DOTATATE uptake values compared to unstimulated cells (PC3 cells [3]; stimulated PC3, 24 h, p = 0.3694): marginal increase
- Bmax (SSTR2 in HEKsst2 cells [4]; HEKsst2 stimulated with 5-aza-dC and VPA, 1 h, 37 °C, one-site model, specific binding, 95% CI = 1.08 × 10^−9 to 1.62 × 10^−9 nmol): 1.32e-09 nmol
- Kd (SSTR2 in HEKsst2 cells [4]; HEKsst2 stimulated with 5-aza-dC and VPA, 1 h, 37 °C, one-site model): 4.88 nM
- number of binding sites per cell (SSTR2 in HEKsst2 cells [4]; HEKsst2 stimulated with 5-aza-dC and VPA): 7.95 × 10^5
- maximum total binding (SSTR2 in HEKsst2 cells [4]; almost reached at 0.5 MBq/mL Lu-177-DOTATATE, HEKsst2): 17 kBq/500,000 cells
- Bmax (SSTR2 in HEKsst2 cells [4]; as restated in the discussion (Figure 3), unstimulated HEKsst2): 4.4 × 10^−10 nmol/cell
- Bmax as bound activity (SSTR2 in HEKsst2 cells [4]; corresponds to Bmax = 4.4 × 10^−10 nmol/cell): 15.5 kBq/500,000 cells
- Bmax (SSTR2 in HEKsst2 cells [4]; unstimulated HEKsst2, 1 h, 37 °C, one-site model, specific binding, 95% CI = 4.15 × 10^−10 to 4.58 × 10^−10 nmol): 4.36e-10 nmol
- Kd (SSTR2 in HEKsst2 cells [4]; unstimulated HEKsst2, 1 h, 37 °C, one-site model): 2.1 nM
- number of binding sites per cell (SSTR2 in HEKsst2 cells [4]; unstimulated HEKsst2): 2.63 × 10^5
- number of binding sites per cell, unstimulated compared to stimulated (SSTR2 in HEKsst2 cells [4]; unstimulated vs stimulated HEKsst2): three-fold lower
- radioactivity concentration at which all SST2 receptors are engaged (assumed) (HEKsst2 cells [5]; HEKsst2, equal to approximately 0.34 ng/500,000 cells): 0.5 MBq/mL
- decrease of SF values with Lu-177-DOTATATE concentration (HEKsst2 cells [5]; unstimulated HEKsst2, 0.05-5 MBq/mL, 24 h): strong dose-dependent decrease of the SF values until the receptors seemed to be saturated
- decrease of the survival with Lu-177-DOTATATE concentration (PC3 cells [6]): much less pronounced
- Survival Fraction (HEKsst2 cells [7]; 57.5 kBq/mL Lu-177-DOTATATE, non-stimulated): 0.54
- Survival Fraction (HEKsst2 cells [7]; 57.5 kBq/mL Lu-177-DOTATATE, stimulated with 5-aza-dC 0.25 µM and VPA 0.6 mM, normalized to SF = 1, p = 0.1424 vs unstimulated): 0.27
- factor of increase of radiotoxic effects, stimulated vs unstimulated (HEKsst2 cells [7]; 57.5 kBq/mL, 5-aza-dC 0.25 µM and VPA 0.6 mM): 2
- Survival Fraction (HEKsst2 cells [7]; 136 kBq/mL Lu-177-DOTATATE, stimulated with 5-aza-dC 0.46 µM and VPA 1.0 mM, normalized to SF = 1, p = 0.0029 vs unstimulated): 0.09 and 0.1
- Survival Fraction (HEKsst2 cells [7]; 136 kBq/mL Lu-177-DOTATATE, unstimulated): 0.42
- factor of lower survival, stimulated vs unstimulated (radiotoxic effect increase) (HEKsst2 cells [7]; 136 kBq/mL, 5-aza-dC 0.46 µM and VPA 1.0 mM): 4
- cell survival of stimulated vs unstimulated PC3 (PC3 cells [8]; 57.5 kBq/mL Lu-177-DOTATATE, not statistically significant, p = 0.5482): higher SF fractions
- cell survival of stimulated vs unstimulated PC3 (PC3 cells [8]; 136 kBq/mL Lu-177-DOTATATE, p = 0.5078): only a slight, statistically insignificant difference
- radiotoxic effects when stimulated with 5-aza-dC and VPA (PC3 cells [8]; PC3, Lu-177-DOTATATE 57.5 and 136 kBq/mL): no increase regarding the radiotoxic effects

Substance: octreotide
- inhibition of the Forskolin-stimulated cAMP production [9]: inhibition of the Forskolin-stimulated cAMP production
